Experimental findings from ChEMBL document CHEMBL5131502, “Improving the treatment of Parkinson's disease: Structure-based development of novel 5-HT2A receptor antagonists/inverse agonists” (Eur J Med Chem, 2022) are described below.

For orientation: IC50 means the midpoint of a concentration-inhibition curve. As a reminder, the half-life is the time needed for the level to fall by half in the phase considered.

The source made the active and inactive calls.

Data set [1] concerns the target T1, 5-hydroxytryptamine receptor 2A (Homo sapiens, UniProt P28223). The data set is described as follows: Antagonist activity at 5-HT2A receptor (unknown origin) expressed in CHO-K1 cells assessed as reduction in intracellular Ca2+ mobilization incubated for 15 mins by FLIPR assay. The class given is functional, cell-based. For orientation: Calcium flux is commonly read through the fluorescence of an indicator in the cells.

Data set [2] deals with T1, 5-hydroxytryptamine receptor 2A. Nature of the data set: Inverse agonist activity at 5-HT2A receptor (unknown origin) expressed in mouse NIH3T3 cells using o-nitrophenyl-D-galacto pyranoside incubated for 120 hrs. The class given is functional, cell-based.
For data set [3] the target is unchanged. Nature of the data set: Potency index, ratio of pimavanserin IC50 to test compound IC50 for antagonist activity at 5-HT2A receptor (unknown origin) expressed in CHO-K1 cells assessed as reduction in intracellular Ca2+ mobilization incubated for 15 mins by FLIPR assay. The class given is functional, cell-based.
Data set [4] has the same target. The data set is described as follows: Potency index, ratio of pimavanserin IC50 to test compound IC50 for inverse agonist activity at 5-HT2A receptor (unknown origin) expressed in mouse NIH3T3 cells using o-nitrophenyl-D-galacto pyranoside incubated for 120 hrs. The class given is cell-based.
The nature of data set [5]: Metabolic stability in human liver microsomes assessed as intrinsic clearance at 100 uM preincubated for 10 mins followed by NADPH addition by LC/MS analysis. The class given is ADME, Microsome. The following applies: read-out: CLH. Background: Liver microsomes are vesicles of endoplasmic reticulum, rich in cytochrome P450 enzymes.
Data set [6] is described as follows: Metabolic stability in human liver microsomes assessed as compound remaining at 100 uM […] followed by NADPH addition by LC/MS analysis. The class given is ADME, Microsome. The settings on record: read-out: Stability.
Data set [7] can be described thus: Metabolic stability in Sprague-Dawley rat liver microsomes assessed as intrinsic clearance at 100 uM preincubated for 10 mins followed by NADPH addition by LC/MS analysis. The format is ADME, Microsome. The following applies: read-out: CLH.
The nature of data set [8]: Metabolic stability in human liver microsomes assessed as half life at 100 uM preincubated for 10 mins followed by NADPH addition by LC/MS analysis. The format is ADME, Microsome.
Data set [9] is described as follows: Metabolic stability in Sprague-Dawley rat liver microsomes assessed as half life at 100 uM preincubated for 10 mins followed by NADPH addition by LC/MS analysis. The format is ADME, Microsome.
The nature of data set [10]: Metabolic stability in Sprague-Dawley rat liver microsomes assessed as compound remaining at 100 uM […] followed by NADPH addition by LC/MS analysis. The following applies: read-out: Stability. The format is ADME, Microsome.
The target in data set [11] is Voltage-gated inwardly rectifying potassium channel KCNH2 (Homo sapiens, UniProt Q12809). Nature of the data set: Inhibition of hERG potassium channel expressed in CHO cells at -80 mV holding potential by whole cell patch clamp assay. The class given is toxicity, cell-based.
For data set [12], the system named is Rattus norvegicus. Nature of the data set: Antiparkinson's activity in rat assessed as reduction in DOI-induced head-twitching at 1.5 to 6 micromol/kg, IG measured after 1 hr. The class given is functional, organism-based. The settings on record: dose 1.5-6 µmol/kg.
Data set [13] relates to Rattus norvegicus. Nature of the data set: Antiparkinson's activity in rat assessed as reduction of DOI-induced head-twitching at 6 micromol/kg, IG measured after 1 hr. The format is functional, organism-based. The following applies: dose 6.0 µmol/kg.

T1 sequence (P28223 whole entry): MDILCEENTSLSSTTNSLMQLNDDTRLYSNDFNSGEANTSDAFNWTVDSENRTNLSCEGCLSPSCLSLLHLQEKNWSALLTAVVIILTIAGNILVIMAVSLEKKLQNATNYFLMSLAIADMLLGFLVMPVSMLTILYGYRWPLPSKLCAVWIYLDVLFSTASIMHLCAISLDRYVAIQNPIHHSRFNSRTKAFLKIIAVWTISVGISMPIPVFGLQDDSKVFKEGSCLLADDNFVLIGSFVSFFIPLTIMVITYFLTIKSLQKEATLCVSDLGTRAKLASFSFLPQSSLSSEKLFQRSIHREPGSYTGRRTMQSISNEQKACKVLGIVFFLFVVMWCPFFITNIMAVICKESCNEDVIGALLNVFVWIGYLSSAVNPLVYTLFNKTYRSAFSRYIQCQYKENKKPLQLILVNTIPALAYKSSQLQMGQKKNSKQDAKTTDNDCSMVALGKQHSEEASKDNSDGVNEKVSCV
Chain of Voltage-gated inwardly rectifying potassium channel KCNH2 (Q12809 whole entry): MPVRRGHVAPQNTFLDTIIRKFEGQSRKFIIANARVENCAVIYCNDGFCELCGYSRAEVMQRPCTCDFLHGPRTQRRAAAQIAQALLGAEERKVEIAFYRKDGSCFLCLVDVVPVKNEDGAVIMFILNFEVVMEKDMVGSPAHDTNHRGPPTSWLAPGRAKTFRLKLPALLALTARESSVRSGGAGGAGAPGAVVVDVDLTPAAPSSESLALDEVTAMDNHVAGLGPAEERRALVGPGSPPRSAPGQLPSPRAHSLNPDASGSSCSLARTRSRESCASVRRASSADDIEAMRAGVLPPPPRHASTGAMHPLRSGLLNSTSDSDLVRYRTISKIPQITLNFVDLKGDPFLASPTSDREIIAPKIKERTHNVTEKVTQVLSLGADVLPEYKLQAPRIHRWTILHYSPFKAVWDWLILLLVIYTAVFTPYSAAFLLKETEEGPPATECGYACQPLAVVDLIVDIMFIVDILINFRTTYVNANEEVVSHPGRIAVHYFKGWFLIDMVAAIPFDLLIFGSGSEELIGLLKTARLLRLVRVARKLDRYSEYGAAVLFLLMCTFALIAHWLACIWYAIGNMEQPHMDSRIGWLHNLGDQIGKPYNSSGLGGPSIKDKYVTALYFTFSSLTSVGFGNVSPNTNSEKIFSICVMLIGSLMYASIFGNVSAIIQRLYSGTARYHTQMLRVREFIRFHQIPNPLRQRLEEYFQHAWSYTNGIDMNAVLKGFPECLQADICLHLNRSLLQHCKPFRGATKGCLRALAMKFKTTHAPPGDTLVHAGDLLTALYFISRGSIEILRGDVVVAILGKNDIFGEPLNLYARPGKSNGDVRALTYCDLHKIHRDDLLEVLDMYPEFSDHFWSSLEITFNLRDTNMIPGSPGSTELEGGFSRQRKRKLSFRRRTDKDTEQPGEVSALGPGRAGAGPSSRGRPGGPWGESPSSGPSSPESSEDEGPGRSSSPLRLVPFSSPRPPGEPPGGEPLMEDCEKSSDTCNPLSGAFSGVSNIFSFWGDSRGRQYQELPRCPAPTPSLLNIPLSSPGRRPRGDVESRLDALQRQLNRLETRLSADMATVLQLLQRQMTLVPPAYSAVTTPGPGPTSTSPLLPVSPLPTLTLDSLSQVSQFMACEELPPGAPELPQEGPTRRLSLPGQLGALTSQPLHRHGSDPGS

For the compound `CN1CCC(N(Cc2ccc(F)cn2)C(=O)NCc2ccc(OC(F)(F)C(F)(F)F)cc2)CC1`, the half-maximal inhibitory concentration (IC50) in data set [1] came out at 33.4 nM.

For the compound `CC(C)COc1ccc(CNC(=O)N(Cc2cn[nH]c2)C2CCN(C)CC2)cc1`, the IC50 in [2] and in [1] was > 500 nM throughout.

Regarding `CN1CCC(N(Cc2ccc(F)cn2)C(=O)NCc2ccc(OCC(F)(F)F)c(C(F)(F)F)c2)CC1`, the values for the IC50 in data set [2] and in data set [1] were 30.5 nM and 27.3 nM, respectively.

Take `CC(C)COc1ccc(CNC(=O)N(Cc2cccc3sccc23)C2CCN(C)CC2)cc1`: the IC50 in data set [2] and in data set [1] was > 500 nM in each case. The Ratio IC50 in [3] is > 15; in [4] it was > 10.

In the case of `CC(C)CCc1ccc(CNC(=O)N(Cc2ccc(F)cn2)C2CCN(C)CC2)cc1`, in [1], the 50% inhibitory concentration (IC50) was determined as 67.2 nM.

As to `CC(C)c1cc2cc(CNC(=O)N(Cc3ccc(F)cn3)C3CCN(C)CC3)ccc2o1`, the half-inhibitory concentration (IC50) in [2] turned out to be 64.9 nM.

With `CC(C)COc1ccc(CNC(=O)N(Cc2ccc(F)cc2)C2CC(N(C)C)C2)cc1` (centres undefined), the figures for the IC50 in [2] and in data set [1] were 159 nM and 139 nM, respectively.

For the compound `CC(C)COc1ccc(CNC(=O)N(Cc2cccc3[nH]cnc23)C2CCN(C)CC2)cc1`, the IC50 in [2] and in data set [1] was > 500 nM throughout. Further, the Ratio IC50 is > 15 in data set [3] and > 10 in data set [4].

On to `CC(C)COc1ccc(CNC(=O)N(Cc2ccc(F)cn2)C2CCN(C)CC2)cc1`, for which the values for the Ratio IC50 in data set [3] and in data set [4] were 3 and 2, respectively.

In the case of `CC(C)COc1ccc(CNC(=O)N(Cc2ccc(F)cc2)C2CCC(N(C)C)C2)cc1` (centres undefined), the IC50 in data set [2] amounted to 101 nM; in [1], 110 nM.

Regarding `Cc1noc(C)c1CN(C(=O)NCc1ccc(OCC(C)C)cc1)C1CCN(C)CC1`, the IC50 in data set [2] and in data set [1] was > 500 nM throughout.

For `CN1CCC(N(Cc2ccc(F)cn2)C(=O)NCc2ccc(OCCCF)cc2)CC1`, the figures for the CLint scaled at 100 µM in [5] and in data set [7] were < 6.7 mL/min/kg and < 13.4 mL/min/kg, respectively. The figures for the IC50 in data set [2] and in data set [1] were 3.05 nM and 1.93 nM, respectively. Further, the remaining at 100 µM in data set [6] stood at 87.8%; in [10], 80.4%. The half-life at 100 µM in [8] and in [9] was > 3.1 h in each case.

Turning to `CC(C)COc1ccc(CNC(=O)N(Cc2ccc(F)cc2)C2CCN(CCN(C)C)CC2)cc1`, the concentration for half-maximal inhibition (IC50) in data set [2] is > 500 nM; in data set [1] it was 75.4 nM.

Regarding `CN1CCC(N(Cc2ccc(F)cn2)C(=O)NCc2ccc3c(c2)CC(C)(C)O3)CC1`, the CLint scaled at 100 µM was 11.9 mL/min/kg in data set [5] and 37.1 mL/min/kg in data set [7]. The same compound returned an IC50 in data set [11] of 3610 nM. Besides, the remaining at 100 µM in [6] amounted to 66.8%; in [10], 55%. Moreover, the half-life at 100 µM in data set [8] worked out at 1.75 h; in [9], 1.06 h.

As to `CN1CCC(N(Cc2ccc(F)cn2)C(=O)NCc2ccc(OCC(F)(F)F)c(Br)c2)CC1`, the IC50 in data set [2] was found to be 8.85 nM; in data set [1] it was 12 nM.

As to `CN1CCC(N(Cc2ccc(F)cn2)C(=O)NCc2ccc(OCC(F)(F)F)c(Cl)c2)CC1`, the values for the IC50 in data set [2] and in [1] were 134 nM and 125 nM, respectively.

For `CC(C)Cc1ccc(CNC(=O)N(Cc2ccc(F)cn2)C2CCN(C)CC2)cc1`, the IC50 stood at 8.3 nM in data set [2] and 26.4 nM in data set [1].

On to `CN1CCC(N(Cc2ccc(F)cn2)C(=O)NCc2ccc(CCC(F)(F)F)cc2)CC1`, for which the IC50 in data set [2] was 872 nM; in [1], 18.3 nM.

Regarding `CC(C)COc1ccc(CNC(=O)N(Cc2ccc(F)nn2)C2CCN(C)CC2)cc1`, the IC50 in data set [2] is > 500 nM.

As to `CC(C)COc1ccc(CNC(=O)N(Cc2ccc(F)cc2)C2CCCC(N(C)C)C2)cc1` (centres undefined), the IC50 in data set [2] and in data set [1] was > 500 nM throughout.

Turning to `CN1CCC(N(Cc2ccc(F)cn2)C(=O)NCc2ccc(OCC(F)(F)F)cc2)CC1`, the result with Rattus norvegicus [12] was Active.

On to `CC(C)COc1ccc(CNC(=O)N(Cc2ccc(F)cc2)C2CCN(CC(=O)N(C)C)CC2)cc1`, for which the figures for the IC50 in data set [2] and in data set [1] were 86.4 nM and 252 nM, respectively.

In data set [2], `CN1CCC(N(Cc2ccc(F)cn2)C(=O)NCc2ccc3c(c2)CCC(C)(C)O3)CC1` showed an IC50 of 127 nM.

Regarding `CC(C)COc1ccc(CNC(=O)N(Cc2ccc(F)nc2)C2CCN(C)CC2)cc1`, the IC50 in data set [2] and in data set [1] was > 500 nM throughout.

As to `CC(C)COc1ccc(CNC(=O)N(Cc2ccc(F)cc2)C2CCN(C)CC2)cc1`, the result in the data set with Rattus norvegicus [13] was Active.

In the case of `CC(C)COc1ccc(CNC(=O)N(Cc2ncc(F)cc2F)C2CCN(C)CC2)cc1`, the IC50 in [1] came to 43.2 nM.
